Reference: patent US11844846B2, “Styrylbenzothiazole derivatives and uses in imaging methods” (Emory University, priority 2018, dated 2023)
“Also recorded” adds a separate entry of the source.

Tests used:
Aβ PFFs = target: T1, Aβ PFFs (Homo sapiens, UniProt P05067); test: fluorescence spectroscopy titration with Aβ PFFs; type: binding; settings: 0.08 μM fibrils, 5 μM small molecule; result in words
T1 construct: counter-screening with Tau and Aβ PFFs
Description: (§1) A fluorescent titration assay was conducted. The fluorescent emission intensities were determined with 0.08 μM of various fibrils in the presence of 5 μM of the small molecules.
(§2) To further investigate the selected compounds binding activities with α-Syn PFFs, fluorescence spectroscopy titrations were conducted to quantitatively measure compounds emission intensity when interacting with different concentrations of α-Syn PFFs. The UV spectrum of each compound was determined and selected for the optimal wavelength to conduct the fluorescence spectroscopic studies.

α-Syn PFFs = α-Syn PFFs (Homo sapiens, UniProt P37840); test: fluorescence spectroscopy titration with α-Syn PFFs; type: binding; settings: 0.08 μM fibrils, 5 μM small molecule; result in words
Description: as §1, §2

Tau PFFs = Tau PFFs (Homo sapiens, UniProt P10636); test: fluorescence spectroscopy titration with Tau PFFs; type: binding; settings: 0.08 μM fibrils, 5 μM small molecule; result in words
Description: as §1, §2

[1] = target: T2, senile plaques in 5×FAD and 3×Tg mice brain sections (Homo sapiens, UniProt P05067); test: staining of mouse brain sections with senile plaques; type: binding
T2 construct: Aβ-enriched senile plaques; from tissue; host or cells: brain sections of 5×FAD and 3×Tg mice

[2] = test system: NFT in Tau P301S and 3×Tg mice brain sections; test: staining of mouse brain sections with NFT; type: binding
Description: (§3) To further explore whether the positive compounds selectively bind to the Lewy bodies, α-Syn A53T patient-derived mutant virus injected WT mice brain slices were employed. These mice display extensive Lewy bodies in the SN.
(§4) To further explore whether the positive compounds selectively bind to the Lewy bodies, a α-Syn A53T patient-derived mutant virus was injected into WT mice brain slices. These mice display extensive Lewy bodies in the Substantial nigra (SN). Moreover, P301S mice expressed neurofibrillary tangles (NFT). The Lewy bodies were labeled with p-α-Syn S129 antibody and the positive aggregates were also labeled with the fluorescent signals from the small molecules. […] However, it was worth noting that almost none of the tested compounds were reactive with NFT.

[3] = target: T3, Lewy bodies in α-Syn A53T virus injected WT mice brain slices (Homo sapiens, UniProt P37840, A53T); test: staining of mouse brain slices with Lewy bodies; type: binding
T3 construct: from tissue; host or cells: brain (substantia nigra) of wild-type mice injected with α-Syn A53T virus
Description: as §3, §4

[4] = target: pre-formed fibrils (PFFs) of α-Synuclein (Homo sapiens, UniProt P37840); test: in vitro binding assay with α-Syn PFFs; settings: counter-screening, result in words
Excerpt: The general strategy that was employed to screen the candidate Lewy body PET agents is summarized as follows: (a) To perform in vitro binding assay with Pre-formed fibrils (PFFs) of α-Syn and counter-screening with Tau and Aβ PFFs; (b) To test the positive compounds in the neuronal models with aggregated α-Syn, Tau or […]; (c) To screen with the brain slides from α-Syn mutant A53T virus injected WT mice, and counter-screen with aged 3×Tg (containing both senile plaques and NFT), and aged Tau P301S (NFT) brain sections; (d) to screen the patient brain sections from DLB and MSA against AD; (e) To determine the binding kinetics between α-Syn PFFs and positive hits; (f) To determine the candidates in vivo brain/plasma (B/P) ratios and the brain permeability; (g) To determine the in vivo PET images in α-Syn A53T with candidates and compare its images in 5XFAD and Tau P301S mice.
To perform in vitro binding assay, commercial compounds were screened (See FIG. 7B).
A series of derivatives were synthesized by including an amino group and a methyl group on benzothiazole to increase the brain permeability and fluorescent signals. The derivatives were subsequently subjected to α-Syn PFFs binding assay and counter-screening with Tau and Aβ PFFs. […] These compounds were screened on the neuronal α-Syn, Tau and Aβ aggregation model for the binding selectivity. Primary cultured neurons were infected with AAV-α-Syn, AAV-Tau FL for 7 days, then treated with α-Syn, Tau or Aβ PFFs. In a few days, the positive compounds were added in the primary neurons with indicated aggregates and analyzed under fluorescent microscopy.
To perform in vitro binding assay, compounds were screened. […] An amino group and a methyl group in the benzothazole were added to increase its brain permeability and fluorescent signals. […] The synthesized derivatives were subsequently subjected to the α-Syn PFFs binding and counter-screen of Tau and Aβ PFFs as described above.

Sequence of Tau PFFs (P10636 whole entry): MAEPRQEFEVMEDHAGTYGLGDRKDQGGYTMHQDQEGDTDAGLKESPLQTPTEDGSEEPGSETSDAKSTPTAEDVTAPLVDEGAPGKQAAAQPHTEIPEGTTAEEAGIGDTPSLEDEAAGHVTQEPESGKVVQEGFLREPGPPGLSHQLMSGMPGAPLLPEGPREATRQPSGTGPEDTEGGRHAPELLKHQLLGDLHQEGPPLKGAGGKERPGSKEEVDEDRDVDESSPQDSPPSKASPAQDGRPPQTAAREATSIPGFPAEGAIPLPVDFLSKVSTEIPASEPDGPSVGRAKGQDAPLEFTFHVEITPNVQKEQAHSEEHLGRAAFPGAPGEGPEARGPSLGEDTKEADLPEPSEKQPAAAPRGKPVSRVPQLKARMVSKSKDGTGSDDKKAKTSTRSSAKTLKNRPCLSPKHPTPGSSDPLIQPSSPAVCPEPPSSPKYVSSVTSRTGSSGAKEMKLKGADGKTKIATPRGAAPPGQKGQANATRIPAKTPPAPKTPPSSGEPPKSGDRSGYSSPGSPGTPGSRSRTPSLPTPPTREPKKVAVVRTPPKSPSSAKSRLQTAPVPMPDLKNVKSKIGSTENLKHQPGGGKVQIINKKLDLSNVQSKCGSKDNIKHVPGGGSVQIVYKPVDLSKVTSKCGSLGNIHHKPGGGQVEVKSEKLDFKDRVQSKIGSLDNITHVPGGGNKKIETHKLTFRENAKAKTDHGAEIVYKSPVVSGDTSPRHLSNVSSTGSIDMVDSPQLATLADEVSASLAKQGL
T2 sequence (P05067 672-713 limits assumed): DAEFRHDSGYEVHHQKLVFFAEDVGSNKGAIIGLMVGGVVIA
T1 sequence (P05067 672-713 limits assumed): as above

Structure (SMILES)	binding to Aβ PFFs by fluorescent emission intensity (Aβ PFFs)	binding to α-Syn PFFs by fluorescent emission intensity (α-Syn PFFs)	binding to Tau PFFs by fluorescent emission intensity (Tau PFFs)	staining of senile plaques [1]	staining of NFT [2]	staining of Lewy bodies (p-α-Syn S129 positive) [3]	binding selectivity α-Syn versus Aβ or Tau PFFs [4]
CN(C)c1ccc2nc(/C=C/c3ccc(O)c(Br)c3)sc2c1 [EU-004-02B, (E)-2-bromo-4-(2-(6-(dimethylamino)benzo[d]thiazol-2-yl)vinyl)phenol]	modest and weak binding activities toward these 3 PFFs	modest and weak binding activities toward these 3 PFFs	modest and weak binding activities toward these 3 PFFs				
Cc1ccc2c(c1)sc(-c1ccc(N(C)C)cc1)[n+]2C.[Cl-] [ThT, reference compound]				co-localized with all of these aggregates in the brain sections	co-localized with all of these aggregates in the brain sections	co-localized with all of these aggregates in the brain sections; also recorded: co-localized with p-S129 aggregates in the brain sections	non-selectively interacted with these PFFs; also recorded: non-selectively interacted with both α-Syn and Tau PFFs
